Reference: patent publication US20170152258A9, “Substituted Pyridopyrazines as Syk Inhibitors” (HUTCHISON MEDIPHARMA LIMITED, priority 2012, published 2017)

Target: Syk kinase (Homo sapiens, UniProt P43405)
Assay: SYK Enzymatic Assay (Z-LYTE Tyr 2 peptide)
Type: biochemical
Conditions: 8 concentrations 1 μM down to 0.0003 μM
Experimental: Syk kinase assay are performed in vitro using Kit-Tyr 2 Peptide (Invitrogen, Cat. No. PV3191) and in a 384-well assay plate. […] The 384-well assay plate (Corning, Cat. No. 3575) is mixed and incubated at room temperature for 1 hour. 10 μL of the Development Solution (prepared by diluting Development Reagent A (Cat. No. PV3297) to 1/32 with Development Buffer (Cat. No. PV3127)) is then added to each well, mixed and incubated at room temperature for another 1 hour. The reactions are then stopped by adding 10 μL of the Stop Reagent (Invitrogen, Cat. No. PV3094), and the plate is read with Wallac 1420 VICTOR^3 Multilabel Counter (PerkinElmer™) at 445 nm and 520 nm fluorescence. All compounds are tested at 8 concentrations (1 μM down to 0.0003 μM) using a 1:3 serial dilution scheme.

Compound	IC50 [nM]
N#CC1(c2ccc(-c3cc4nccnc4c(OC[C@@H]4CN(C(N)=O)CCO4)n3)cc2)CC1 [Compound 275]	76
CC(C)(O)c1ccc(-c2cc3nccnc3c(OCC3OCCNC3=O)n2)cc1 (stereo not shown) [Compound 319]	208
OC1CCC(Oc2nc(-c3ccc(N4CCOCC4)cc3)cc3nccnc23)CC1 (stereo not shown) [Compound 1, 4-(7-(4-morpholinophenyl)pyrido[4,3-b]pyrazin-5-yloxy)cyclohexanol]	270
CN(C)c1ccc(-c2cc3nccnc3c(OC[C@@H]3CN(C(=O)C4(C#N)CC4)CCO3)n2)cc1 [Compound 97]	144
COc1ccc(-c2cc3nccnc3c(OC[C@@H]3CN(C(C)=O)CCO3)n2)cc1OC [Compound 132]	109
CC(=O)N1CCO[C@H](COc2nc(-c3cnc(N(C)C)c(C)c3)cc3nccnc23)C1 [Compound 174]	816
CN(C)c1ccc(-c2cc3nccnc3c(OCC3CCCO3)n2)cc1 (stereo not shown) [Compound 168]	211
CC(=O)N1CCO[C@H](COc2nc(-c3ccc(C4CCNCC4)cc3)cc3nccnc23)C1 [Compound 162]	151
CS(=O)(=O)N1CCC(c2ccc(-c3cc4nccnc4c(OCC4OCCNC4=O)n3)cc2)CC1 (stereo not shown) [Compound 320]	119
COc1cc(-c2cc3nccnc3c(OC[C@@H]3CN(C(C)=O)CCO3)n2)ccc1OC(C)C [Compound 147]	115
CS(=O)(=O)N1CCO[C@H](COc2nc(-c3cnn(C4CCOCC4)c3)cc3nccnc23)C1 [Compound 42]	139
CN(C)c1ccc(-c2cc3nccnc3c(OC3CCOCC3)n2)cc1 [Compound 107]	919
CN(C)c1ccc(-c2cc3nccnc3c(O[C@H]3CCOC3)n2)cc1 [Compound 106]	130
CN(C)c1ccc(-c2cc3nccnc3c(OC[C@@H]3CN(C(=O)CCc4cccnc4)CCO3)n2)cc1 [Compound 79]	231
CNC(=O)N1CCOC(C(C)Oc2nc(-c3ccc(N(C)C)cc3)cc3nccnc23)C1 (stereo not shown) [Compound 239]	451
CN1CCN(c2ccc(-c3cc4nccnc4c(OCC4CCC(=O)NC4)n3)cc2)CC1 (stereo not shown) [Compound 5]	172
NC(=O)c1ccc(Oc2nc(-c3ccc(N4CCOCC4)cc3)cc3nccnc23)cc1 [Compound 3, 4-(7-(4-morpholinophenyl)pyrido[4,3-b]pyrazin-5-yloxy)benzamide]	459
CC(=O)N1CCO[C@H](COc2nc(-c3ccc(C4(C#N)CCC4)cc3)cc3nccnc23)C1 [Compound 289]	115

Compound	IC50 [nM]
CN(C)c1ccc(-c2cc3nccnc3c(OC[C@@H]3CN(C(=O)CCCC#N)CCO3)n2)cc1 [Compound 81]	166
CN(C)c1ccc(-c2cc3nccnc3c(OCC3CCCCO3)n2)cc1 (stereo not shown) [Compound 167]	405
CC(Oc1nc(-c2ccc(N(C)C)cc2)cc2nccnc12)C1CN(C(N)=O)CCO1 (stereo not shown) [Compound 238]	275
c1cnc2c(OCCc3cn[nH]c3)nc(-c3ccc(N4CCOCC4)cc3)cc2n1 [Compound 2, 4-(4-(5-(2-(1H-pyrazol-4-yl)ethoxy)pyrido[3,4-b]pyrazin-7-yl)phenyl)morpholine]	552
CNC(=O)N1CCOC(C(C)Oc2nc(-c3ccc(N(C)C)cc3)cc3nccnc23)C1 (stereo not shown) [Compound 235]	212
CN1C[C@@H](COc2nc(-c3ccc(C(C)(C)O)cc3)cc3nccnc23)OCC1=O [Compound 310]	588
CN(C)c1ccc(-c2cc3nccnc3c(OC[C@@H]3CN(C(=O)Cc4cccnc4)CCO3)n2)cc1 [Compound 80]	107
CC(=O)N1CCC(c2ccc(-c3cc4nccnc4c(O[C@@H]4CCCOC4)n3)cc2)CC1 [Compound 191]	115
CNC(=O)N1CCO[C@H](COc2nc(-c3ccc4[nH]ncc4c3)cc3nccnc23)C1 [Compound 204]	126
CC(Oc1nc(-c2ccc(N(C)C)cc2)cc2nccnc12)C1CN(C(N)=O)CCO1 (stereo not shown) [Compound 234]	193
CC(=O)N1CCOC(C(C)Oc2nc(-c3ccc(N(C)C)cc3)cc3nccnc23)C1 (stereo not shown) [Compound 233]	386
CS(=O)(=O)N1CCC(c2ccc(-c3cc4nccnc4c(O[C@@H]4CCCOC4)n3)cc2)CC1 [Compound 180]	177
c1cnc2c(O[C@@H]3CCNC3)nc(-c3ccc(N4CCOCC4)cc3)cc2n1 [Compound 243]	300
CC(=O)N1CC(c2ccc(-c3cc4nccnc4c(OC[C@@H]4CN(C(C)=O)CCO4)n3)cc2)C1 [Compound 295, (S)-1-(2-(((7-(4-(1-acetylazetidin-3-yl)phenyl)pyrido[3,4-b]pyrazin-5-yl)oxy)methyl)morpholino)ethanone]	128
Clc1cc(-c2cc3nccnc3c(O[C@@H]3CCOC3)n2)ccc1N1CCOCC1 [Compound 194]	136
CN(C)c1ccc(-c2cc3nccnc3c(OC[C@@H]3CN(C(=O)CCn4ccnc4)CCO3)n2)cc1 [Compound 85]	283
CC(=O)N1CCO[C@H](COc2nc(-c3ccc(C(C)(CO)CO)cc3)cc3nccnc23)C1 [Compound 278]	175
NC(=O)N1CCO[C@H](COc2nc(-c3ccc4[nH]ncc4c3)cc3nccnc23)C1 [Cmpd 242]	111

More lines, now with the values ahead:

IC50 [nM]	Compound
122	CNc1ccc(-c2cc3nccnc3c(OC[C@@H]3CN(C(C)=O)CCO3)n2)cc1 [Compound 47]
122	COCCNc1ccc(-c2cc3nccnc3c(OC[C@@H]3CN(C(C)=O)CCO3)n2)cc1 [Compound 114]
474	CN(C)c1ccc(-c2cc3nccnc3c(OC[C@@H]3CN(S(=O)(=O)C4CCCCC4)CCO3)n2)cc1 [Compound 91]
741	CC(=O)N1CCO[C@H](COc2nc(-c3ccc(C(C)N(C)C)cc3)cc3nccnc23)C1 (stereo partly shown) [Compound 271]
403	CC(=O)N1CCO[C@H](COc2nc(-c3ccc(C(O)C(C)C)cc3)cc3nccnc23)C1 (stereo partly shown) [Compound 286]
104	CC(=O)NC(C)(C)c1ccc(-c2cc3nccnc3c(OC[C@@H]3CN(S(C)(=O)=O)CCO3)n2)cc1 [Compound 313]
131	COc1ccc(-c2cc3nccnc3c(OC[C@@H]3CN(S(C)(=O)=O)CCO3)n2)cc1F [Compound 35]
477	CNS(=O)(=O)CCN1CCO[C@H](COc2nc(-c3ccc(N(C)C)cc3)cc3nccnc23)C1 [Compound 128]
178	CN(C)CCc1ccc(-c2cc3nccnc3c(OC[C@@H]3CN(S(C)(=O)=O)CCO3)n2)cc1 [Compound 272]
127	CC(=O)N1CCO[C@H](COc2nc(-c3ccc(C4(O)CCC4)cc3)cc3nccnc23)C1 [Compound 309]
262	CC(Oc1nc(-c2ccc(N(C)C)cc2)cc2nccnc12)C1CN(S(C)(=O)=O)CCO1 (stereo not shown) [Compound 240]
40	CS(=O)(=O)N1CCO[C@H](COc2nc(-c3ccc(N4CCCC4)cc3)cc3nccnc23)C1 [Compound 37]
227	CS(=O)(=O)N1CCO[C@H](COc2nc(-c3ccc(OC(F)F)cc3)cc3nccnc23)C1 [Compound 34]
136	CC(C)(N)c1ccc(-c2cc3nccnc3c(OC[C@@H]3CN(S(C)(=O)=O)CCO3)n2)cc1 [Compound 244]
454	CN(C)CCOc1cccc(-c2cc3nccnc3c(OC[C@@H]3CN(S(C)(=O)=O)CCO3)n2)c1 [Compound 130]
112	CC(=O)N1CCO[C@H](COc2nc(-c3ccc(C4(C#N)CC4)cc3)cc3nccnc23)C1 [Compound 276]

IC50 [nM]	Compound
113	CC(C)S(=O)(=O)N1CCO[C@H](COc2nc(-c3ccc(N4CCOCC4)cc3)cc3nccnc23)C1 [Compound 82]
192	Cn1cc(-c2cc3nccnc3c(OC[C@@H]3CN(S(C)(=O)=O)CCO3)n2)cn1 [Compound 46]
258	CC(=O)N1CCO[C@H](COc2nc(-c3ccc(C(O)C(C)(C)C)cc3)cc3nccnc23)C1 (stereo partly shown) [Compound 285]
192	C=C(C)c1ccc(-c2cc3nccnc3c(OC[C@@H]3CN(S(C)(=O)=O)CCO3)n2)cc1 [Compound 277, (S)-4-(methylsulfonyl)-2-(((7-(4-(prop-1-en-2-yl)phenyl)pyrido[3,4-b]pyrazin-5-yl)oxy)methyl)morpholine]
138	Cc1ccc(-c2cc3nccnc3c(OC[C@@H]3CN(S(C)(=O)=O)CCO3)n2)cc1 [Compound 41]
808	CN(C)c1ccc(-c2cc3nccnc3c(OC[C@@H]3CN(S(=O)(=O)Cc4cccc(F)c4)CCO3)n2)cc1 [Compound 93]
338	CS(=O)(=O)N1CCO[C@H](COc2nc(-c3ccc(Cl)cc3)cc3nccnc23)C1 [Compound 40]
272	CS(=O)(=O)N1CCC(c2ccc(-c3cc4nccnc4c(OCC4CCCCO4)n3)cc2)CC1 (stereo not shown) [Compound 169]
121	CN(C)S(=O)(=O)N1CCO[C@H](COc2nc(-c3ccc(N4CCOCC4)cc3)cc3nccnc23)C1 [Compound 56]
109	CC(C)c1ccc(-c2cc3nccnc3c(OC[C@@H]3CN(S(N)(=O)=O)CCO3)n2)cc1 [Compound 187]
182	CS(=O)(=O)N1CCC(c2ccc(-c3cc4nccnc4c(OCC4CCCO4)n3)cc2)CC1 (stereo not shown) [Compound 170]
105	CC(C)C(O)c1ccc(-c2cc3nccnc3c(OC[C@@H]3CN(S(C)(=O)=O)CCO3)n2)cc1 (stereo partly shown) [Compound 287]
18	CS(=O)(=O)N1CCO[C@H](COc2nc(-c3ccc(C4CCNCC4)cc3)cc3nccnc23)C1 [Compound 10, (S)-4-(methylsulfonyl)-2-(((7-(4-(piperidin-4-yl)phenyl)pyrido[3,4-b]pyrazin-5-yl)oxy)methyl)morpholine]
113	COC(C)c1ccc(-c2cc3nccnc3c(OC[C@@H]3CN(C(C)=O)CCO3)n2)cc1 (stereo partly shown) [Compound 280]
449	CC(=O)N1CCO[C@H](COc2nc(-c3ccc(C(C)(C)N)cc3)cc3nccnc23)C1 [Compound 245]
